Measured values: the OligoGym collection
“And” between values parts separate entries of the source, which are not always exact repeats. Equal values may be shown once. After the bases stand the sugars from the 5' end (letter, count) and the backbone: PS all phosphorothioate, else s phosphorothioate and o phosphodiester by linkage. Methylation of C is not given here. e = 2'-O-(2-methoxyethyl) (MOE); k = constrained ethyl (cEt); d = 2'-deoxy (DNA)

Target: SOD1
Conditions: ASO

GCAAAATACAGGTCATT (sugars e3 k2 d7 k2 e3, PS)
target mRNA inhibition (HepG2, 3 µM): 43%

GCACTGGGCCGTCGCCCTTC (sugars e5 d10 e5, PS)
target mRNA inhibition (HepG2, 4 µM): 14%

GCCATACAGGGTTTTTA (sugars e3 k2 d7 k2 e3, PS)
target mRNA inhibition (HepG2, 3 µM): 11%

GCCCACTCTGGCCCCAA (sugars e3 k2 d7 k2 e3, PS)
target mRNA inhibition (HepG2, 3 µM): 22%

GCCCTTCAGCACGCACA (sugars e2 k2 d8 k2 e3, PS)
target mRNA inhibition (HepG2, 0.1875 µM): 8%
target mRNA inhibition (HepG2, 0.75 µM): 38%
target mRNA inhibition (HepG2, 3 µM): 74%
target mRNA inhibition (HepG2, 4 µM): 75%
target mRNA inhibition (HepG2, 12 µM): 96%

GCCCTTCAGCACGCACA (sugars e2 k2 d9 k2 e2, PS)
target mRNA inhibition (HepG2, 4 µM): 60%

GCCGTCGCCCTTCAGCA (sugars e2 k2 d9 k2 e2, PS)
target mRNA inhibition (HepG2, 4 µM): 57%

GCCTCAGACTACATCCA (sugars e2 k2 d9 k2 e2, PS)
target mRNA inhibition (HepG2, 0.1875 µM): 34%
target mRNA inhibition (HepG2, 0.75 µM): 59%
target mRNA inhibition (HepG2, 3 µM): 87%
target mRNA inhibition (HepG2, 4 µM): 82%
target mRNA inhibition (HepG2, 12 µM): 95%

GCGACTACTTTATAGGCCAG (sugars e5 d10 e5, PS)
target mRNA inhibition (HepG2, 4 µM): 19%

GCGATCCCAATTACACC (sugars e2 k2 d8 k2 e3, PS)
target mRNA inhibition (HepG2, 4 µM): 31%

GCGCCTCGCCCACTCTGGCC (sugars e5 d10 e5, PS)
target mRNA inhibition (HepG2, 4 µM): 33%

GCTTCCCCACACCTTCA (sugars e3 k2 d7 k2 e3, PS)
target mRNA inhibition (HepG2, 3 µM): 36%

GGAATGTTTATTGGGCG (sugars e3 k2 d7 k2 e3, PS)
target mRNA inhibition (HepG2, 3 µM): 15%

GGATAACAGATGAGTTA (sugars e2 k2 d8 k2 e3, PS)
target mRNA inhibition (HepG2, 4 µM): 63%

GGATAACAGATGAGTTA (sugars e3 k2 d7 k2 e3, PS)
target mRNA inhibition (HepG2, 3 µM): 32%

GGATACATTTCTACAGC (sugars e2 k2 d8 k2 e3, PS)
target mRNA inhibition (HepG2, 0.1875 µM): 4%
target mRNA inhibition (HepG2, 0.75 µM): 49%
target mRNA inhibition (HepG2, 3 µM): 72%
target mRNA inhibition (HepG2, 4 µM): 75%
target mRNA inhibition (HepG2, 12 µM): 87%

GGATAGAGGATTAAAGT (sugars e3 k2 d7 k2 e3, PS)
target mRNA inhibition (HepG2, 3 µM): 14%

GGATTCTTTTAATAGCC (sugars e2 k2 d8 k2 e3, PS)
target mRNA inhibition (HepG2, 5 µM): 14%

GGCCCACCGTGTTTTCTGGA (sugars e5 d10 e5, PS)
target mRNA inhibition (HepG2, 5 µM): 46% and 41%

GGCGATCCCAATTACAC (sugars e3 k2 d7 k2 e3, PS)
target mRNA inhibition (HepG2, 3 µM): 9%

GGGCGATCCCAATTACA (sugars e2 k2 d8 k2 e3, PS)
target mRNA inhibition (HepG2, 4 µM): 30%

GGGCGATCCCAATTACA (sugars e2 k2 d9 k2 e2, PS)
target mRNA inhibition (HepG2, 4 µM): 30%

GGGCGATCCCAATTACA (sugars e3 k2 d7 k2 e3, PS)
target mRNA inhibition (HepG2, 3 µM): 18%

GTCATTGAAACAGACAT (sugars e2 k2 d9 k2 e2, PS)
target mRNA inhibition (HepG2, 5 µM): 15%

GTCGCCATAACTCGCTAGGC (sugars e5 d10 e5, PS)
target mRNA inhibition (HepG2, 0.1875 µM): 10%
target mRNA inhibition (HepG2, 0.75 µM): 21%
target mRNA inhibition (HepG2, 3 µM): 39%
target mRNA inhibition (HepG2, 4 µM): 40%
target mRNA inhibition (HepG2, 12 µM): 90%

GTCGCCCTTCAGCACGC (sugars e3 k2 d7 k2 e3, PS)
target mRNA inhibition (HepG2, 3 µM): 28%

GTCTGGCAAAATACAGG (sugars e3 k2 d7 k2 e3, PS)
target mRNA inhibition (HepG2, 3 µM): 24%

GTGATTTAAGTCTGGCA (sugars e2 k2 d8 k2 e3, PS)
target mRNA inhibition (HepG2, 5 µM): 54%

GTGTGCGGCCAATGATGCAA (sugars e5 d10 e5, PS)
target mRNA inhibition (HepG2, 5 µM): 15%

GTGTTTAATGTTTATC (sugars kekeddddddddekek, linkages s1 o3 s8 o1 s2)
target mRNA inhibition (A431, 0.12 µM): 7%
target mRNA inhibition (A431, 0.6 µM): 35%
target mRNA inhibition (A431, 3 µM): 66%
target mRNA inhibition (A431, 15 µM): 78%
target mRNA inhibition (HepG2, 0.222 µM): 53%
target mRNA inhibition (HepG2, 0.667 µM): 78%
target mRNA inhibition (HepG2, 2 µM): 82%
target mRNA inhibition (HepG2, 6 µM): 90%

GTGTTTAATGTTTATCA (sugars e3 k2 d7 k2 e3, PS)
target mRNA inhibition (HepG2, 3 µM): 37%

GTGTTTAATGTTTATCAGGA (sugars e5 d10 e5, PS)
target mRNA inhibition (HepG2, 0.1875 µM): 18%
target mRNA inhibition (HepG2, 0.75 µM): 45%
target mRNA inhibition (HepG2, 3 µM): 74%
target mRNA inhibition (HepG2, 5 µM): 73%
target mRNA inhibition (HepG2, 12 µM): 92%

GTTTAATGTTTATCAG (sugars kekeddddddddekek, linkages s1 o3 s8 o1 s2)
target mRNA inhibition (A431, 0.12 µM): 7%
target mRNA inhibition (A431, 0.6 µM): 7%
target mRNA inhibition (A431, 3 µM): 41%
target mRNA inhibition (A431, 15 µM): 66%
target mRNA inhibition (HepG2, 0.222 µM): 58%
target mRNA inhibition (HepG2, 0.667 µM): 78%
target mRNA inhibition (HepG2, 2 µM): 86%
target mRNA inhibition (HepG2, 6 µM): 94%

GTTTAATGTTTATCAGG (sugars e2 k2 d8 k2 e3, PS)
target mRNA inhibition (HepG2, 0.1875 µM): 55%
target mRNA inhibition (HepG2, 0.75 µM): 78%
target mRNA inhibition (HepG2, 3 µM): 87%
target mRNA inhibition (HepG2, 5 µM): 87%
target mRNA inhibition (HepG2, 12 µM): 93%
